Test results: patent publication US20240293566A1, “ANTI-EGFRvIII ANTIBODY DRUG CONJUGATES AND USES THEREOF” (Regeneron Pharmaceuticals, Inc., priority 2021, published 2024)

Key:
[1] = system: U251MG/hEGFRvIII in coculture; test: Bystander killing assay, 1:1 coculture, far red positive population; assay type: cell-based, human; conditions: 6 days
Protocol: Bystander killing by an ADC can take place when the cytotoxic payload is released from the target cells and is then taken up by surrounding antigen-negative (bystander) cells. […] Cells were subsequently treated with 3 ug/mL of Hoechst 33342 nuclear stain (ThermoFisher, #H3570) while being fixed with 4% formaldehyde (ThermoFisher, #28908). Images were acquired on the Opera Phenix Microscope (PerkinELmer). All cells were identified by the Hoechst-labeled nuclei and cell counts were separated into far red positive U251 MG/hEGFRvIII cells (U251 in coculture) and far red negative parental U251 MG cell populations via Harmony image analysis software (PerkinELmer). Cell viability was determined separately for each cell population and expressed as a percentage of the untreated (100% viable) cells.

U251 MG parental cells = test: In vitro cytotoxicity (nuclear counts after 6-day treatment), mono-culture; assay type: cell-based
Text: (§1) To determine the relative cell-killing potency of anti-EGFRvIII antibody drug conjugates of the invention, cell-killing assays were run on a cell line expressing human EGFRvIII. To develop the cell line, Lipofectamine LTX with Plus Reagent was used to generate U251 cells (Sigma, #9063001) expressing human EGFRvIII (hEGFRvIII; amino acids 1 through 380 of accession number NP_005219.2 with a deletion of amino acids 30 through 297 and creation of a junctional glycine residue, i.e. SEQ ID NO: 25) here in referred to as U251 MG/hEGFRvIII. The U251 lines were maintained in complete growth media (MEM Earle's Salts+10% FBS+1% L-glutamine/penicillin/streptomycin+1% non-essential amino acids+sodium pyruvate).
(§2) To measure the in vitro cytotoxicity of anti-EGFRvIII antibody drug conjugates, nuclear counts after a 6-day treatment with the antibody drug conjugates were assessed. […] Nuclear counts were determined via Harmony image analysis software (PerkinELmer), and cell viability was expressed as a percentage of the untreated (100% viable) cells. IC50 values were determined using a four-parameter logistic equation over a 10-point dose response curve (GraphPad Prism). The maximum % kill was also determined for each test article as follows: 100-minimum percent viability.

U251MG in coculture = test: Bystander killing assay, 1:1 coculture, far red negative population; assay type: cell-based; conditions: 6 days
Protocol: Bystander killing by an ADC can take place when the cytotoxic payload is released from the target cells and is then taken up by surrounding antigen-negative (bystander) cells. […] A 1:1 coculture of 1500 cells/well of far red labeled U251 MG/hEGFRvIII cells and 1500 cells/well unlabeled U251 MG cells were incubated with either ADC or free payload M31 at a range of concentrations (100 nM to 1.5 pM) for 6 days. Cells were subsequently treated with 3 ug/mL of Hoechst 33342 nuclear stain (ThermoFisher, #H3570) while being fixed with 4% formaldehyde (ThermoFisher, #28908). Images were acquired on the Opera Phenix Microscope (PerkinELmer). All cells were identified by the Hoechst-labeled nuclei and cell counts were separated into far red positive U251 MG/hEGFRvIII cells (U251 in coculture) and far red negative parental U251 MG cell populations via Harmony image analysis software (PerkinELmer). Cell viability was determined separately for each cell population and expressed as a percentage of the untreated (100% viable) cells.

U251 MG/hEGFRvIII cells = test: In vitro cytotoxicity (nuclear counts after 6-day treatment), mono-culture; assay type: cell-based, human
Text: as §1, §2

[2] = system: Orthotopically placed GBM59 GBM PDX tumors; test: Intracranial orthotopic GBM59 PDX survival, comparison with COMP-MMAF (Example 11); assay type: in vivo, mice
Protocol: Intracranial injection was performed at 1 mm anterior and 2 mm lateral to the bregma at a depth of 3 mm. All orthotopic GBM PDX studies were conducted by Translational Drug Development Inc. Orthotopic GBM59 PDX were allowed to establish for 25 days before mice were randomized into groups of 8 and treated with a single dose of test or control ADCs. Mice were monitored for 94 days for signs of peri-morbidity and euthanized prior to reaching a moribund state.

U251/EGFRvIII xenografts = test: Subcutaneous U251/EGFRvIII xenograft, comparison with COMP-MMAF (Example 11); assay type: in vivo, SCID mice; conditions: for Tumor growth (mm^3) from start of treatment (mean ± SD) / Tumor volume (mm^3) at termination of vehicle group (mean ± SD): Day 36 post-treatment
Protocol: For the initial xenograft study, U251/EGFRvIII tumors were established by the subcutaneous implantation of 10×10^6 cells mixed 1:1 with Matrigel on the right flank of male SCID mice. Tumors were grown to ˜175 mm^3 before treatment initiation, approximately 30 days post-implantation. Mice were randomized into groups of 8 and treated with a single dose of test or control ADCs. Tumor growth was monitored for 71 days post-treatment.

COc1cc2c(cc1OCCCCCOc1cc3c(cc1OC)C(=O)N1C=C(C)C[C@H]1C=N3)N=C[C@@H]1CC(C)=CN1C2=O [SG3199]
% Kill (maximum) [1]: 91% | IC50 ([1]; Homo sapiens, U-251, 144 h): 10 pM | IC50 (U251 MG parental cells; Homo sapiens, U-251, 144 h): 2 pM | % Kill (maximum) (U251 MG parental cells; U251MG mono-culture, 6 days): 93% | % Kill (maximum) (U251MG in coculture): 94% | IC50 (U251MG in coculture; Homo sapiens, U-251, 144 h): 7 pM | IC50 (U251 MG/hEGFRvIII cells; Homo sapiens, U-251, 144 h): 10 pM | % Kill (maximum) (U251 MG/hEGFRvIII cells; U251MG/hEGFRvIII mono-culture, 6 days): 92%

COMP-MMAF: ABT-414 (hu806) antibody conjugated to monomethyl auristatin F (MMAF) via non-cleavable linker
N = 8 survival at Day 94 ([2]; ADC dose 1 (mg/kg)): 0/8 | median survival ([2]; ADC dose 1 (mg/kg)): 13.5 days | N = 8 survival at Day 94 ([2]; ADC dose 5 (mg/kg), MMAF ADCs): 0/8 | median survival ([2]; ADC dose 5 (mg/kg), MMAF ADCs): 23.5 days | Effect on survival relative to the MMAF control ([2]; COMP-MMAF 5 mg/kg): some increase in survival | Time within which all mice succumbed to tumor burden ([2]; COMP-MMAF 5 mg/kg): ≤ 35 days of treatment | Effect on survival ([2]; REGN3124-tesirine DAR 1.9, 7 ug/kg payload, COMP-MMAF 1 mg/kg, controls): did not induce a significant increase in survival | Anti-tumor activity (U251/EGFRvIII xenografts; COMP-MMAF 2.5 mg/kg): Activity against tumors was seen | Anti-tumor activity (U251/EGFRvIII xenografts; COMP-MMAF 5 mg/kg, 71 days post-dosing): sustained activity similar to that resulting from treatment with REGN3124-tesirine | Tumor growth (mm^3) from start of treatment (mean ± SD) (U251/EGFRvIII xenografts; ADC dose 1 mg/kg): 423 ± 324 mm^3 | Tumor volume (mm^3) at termination of vehicle group (mean ± SD) (U251/EGFRvIII xenografts; ADC dose 1 mg/kg): 595 ± 325 mm^3 | Tumor growth (mm^3) from start of treatment (mean ± SD) (U251/EGFRvIII xenografts; ADC dose 2.5 mg/kg): 6 ± 36 mm^3 | Tumor volume (mm^3) at termination of vehicle group (mean ± SD) (U251/EGFRvIII xenografts; ADC dose 2.5 mg/kg): 183 ± 51 mm^3 | Tumor growth (mm^3) from start of treatment (mean ± SD) (U251/EGFRvIII xenografts; ADC dose 5 mg/kg): −36 ± 22 mm^3 | Tumor volume (mm^3) at termination of vehicle group (mean ± SD) (U251/EGFRvIII xenografts; ADC dose 5 mg/kg): 136 ± 16 mm^3 | Anti-tumor activity (U251/EGFRvIII xenografts; REGN3124-tesirine 0.53 mg/kg ADC (7 ug/kg PBD payload), COMP-MMAF 1 mg/kg, isotype controls all dose levels): Sustained regression was not observed
